From US6867180B1, “Use of calreticulin and calreticulin fragments to inhibit endothelial cell growth and angiogenesis, and suppress tumor growth” (The United States of America as represented by the …, priority 1998, dated 2005)
Read-outs that look alike come from different tables or passages of the source. Where no end group is shown, it is not given here.

Legend:
[1] = test system: Fetal bovine heart endothelial cells
Protocol: Fetal bovine heart endothelial cells (American Type Culture Collection, ATCC, Manassas, Va.) were grown through passage 12 in DMEM culture medium (BioWhittaker, Walkersville, Md.) containing 10% heat inactivated fetal bovine serum (BioWhittaker), 100 ng/ml bFGF (R&D Systems, Minneapolis, Minn.), and 5 μg/ml gentamicin (Sigma). For proliferation assays, cells were trypsinized (Trypsin/EDTA, Gibco BRL), washed, suspended in culture medium (DMEM containing 10% heat inactivated fetal bovine serum and 5 μg/ml gentamicin), plated (800 cells/well in 0.2 ml culture medium) in triplicate onto 96 well plates, and incubated for 5 days.

[2] = test system: human B cell lines VDS-O and CA-46; assay: Proliferation of indicator B cell lines; format: cell-based; settings: 1-100 μg/ml
From the text: Human mononuclear cells, and mononuclear cells enriched for T or B lymphocytes, were used in proliferation assays in the presence of phytohemagglutinin (Sigma), pokeweed-mitogen (Sigma), or Epstein-Barr virus (B95-8 strain), as described (Tosato et al., J. Immunol. 140:4329-4336, 1988). The lymphoblastoid cell line VDS-O (Tosato, et al., J. Immunol. 137:2037-2042, 1986); the Burkitt lymphoma cell lines CA46, BL-41, KK124, Ag876, SHO (Cherney et al., Cancer Res. 57:2508-2515, 1997); the T-cell line Molt-4 (ATCC); the Hodgkin's lymphoma cell line Hs445 (ATCC); the prostate adenocarcinoma cell lines TSU-Prl (from A. Passaniti, NIH, Baltimore, Md.), Du145 (ATCC), and PC3 (ATCC); and the acute promyelocytic leukemia cell line HL-60 (ATCC) were cultured in RPMI 1640 medium with 10% heat inactivated fetal calf serum (BioWhittaker), 20 mM L-glutamine (Sigma) and 5 μg/ml gentamicin, and tested in 3-5 day proliferation assays at cell densities ranging from 300 to 2400 cells/well. All other cell lines were tested for proliferation in 3-day assays. The neuroblastoma cell line SKNMC (ATCC) was cultured in EMEM medium (BioWhittaker) with 10% heat inactivated fetal calf serum (BioWhittaker) and 5 μg/ml gentamicin (Sigma) and tested for proliferation at 125-1000 cells/well. The lung adenocarcinoma cell line A549 (ATCC) was cultured in F-12 Nutrient Mixture (HAM, GIBCO BRL) with 10% heat inactivated fetal calf serum (BioWhittaker) and 5 μg/ml gentamicin (Sigma), and tested for proliferation at 250-2000 cells/well. The breast adenocarcinoma MDA-MB-468 (ATCC) and the Wilms tumor SK-NEP-1(ATCC) cell lines were cultured in Leibovitz L-15 medium (GIBCO BRL) supplemented with 10% heat inactivated fetal calf serum (BioWhittaker) and 5 μg/ml gentamicin (Sigma), and tested for proliferation at 300-2500 cells/well. The colon carcinoma cell line SW480 (ATCC), the melanoma cell line A-375 (ATCC), and human foreskin fibroblasts (H568, ATCC) were cultured in DMEM medium (BioWhittaker) with 10% heat inactivated fetal calf serum (BioWhittaker) and 5 μg/ml gentamicin (Sigma), and were tested for proliferation at 500-4000 cells/well. All cell lines tested mycoplasma negative.

[3] = molecular target: T1, recombinant MBP-calreticulin fragment 120-180 (Seq. I.D. No. 5) (human, UniProt P14211 137-197 (mouse entry)); assay: affinity column carrying a mixture of the three peptides on Sepharose
T1 construct: also called MBP-120-180 calreticulin; 61 amino acid calreticulin fragment
T1 sequence: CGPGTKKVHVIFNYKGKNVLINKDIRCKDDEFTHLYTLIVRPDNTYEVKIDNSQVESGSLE
Protocol: To this end, purified preparations of the VDS-O cell line containing full length calreticulin (Seq. I.D. No. 3) as well as N-terminal calreticulin fragments were prepared and tested to determine how these components were retained over an affinity column. To prepare the affinity column, three peptides were synthesized ([…], Seq. I.D. 13; KAFFKR, Seq. I.D. No. 33; and KVFFKR, Seq. I.D. No. 32), purified, and coupled to CNBr-activated Sepharose 4B (Pharmacia). […] The purified preparations of VDS-O cell line containing both full length as well as N-terminal calreticulin fragments were then loaded on the column (Starting material).
To address this issue further, recombinant MBP-calreticulin fragment 120–180 (Seq. I.D. No. 5) was tested for its ability to bind to the affinity column described supra.

[4] = test system: peptides KLGFFKR, KAFFKR and KVFFKR coupled to CNBr-activated Sepharose; assay: Affinity column binding to integrin / steroid receptor motif peptides; settings: elution with 20 mM EDTA
From the text: FIG. 18 is a Western blot analysis of fractions obtained through affinity purification over a column containing KXaa1FFXaa2R (Seq. I.D. No. 11) and KXaa1GFFKR (Seq. I.D. No. 10). Purified supernatants from the VDS-0 cell line containing full length calreticulin and N-terminal fragments of calreticulin were affinity purified over a mixture of peptides KLGFFKR (Seq. I.D. No. 13), KAFFKR (Seq. I.D. No. 33) and KVFFKR (Seq. I.D. No. 32) coupled to CNBr-activated Sepharose. Starting material (lane 1), unbound material (lanes 2, 3) and bound material (lanes 4, 5) were separated by SDS-PAGE, transferred to nitrocellulose, and subsequently stained with a rabbit antiserum against human calreticulin.
To this end, purified preparations of the VDS-O cell line containing full length calreticulin (Seq. I.D. No. 3) as well as N-terminal calreticulin fragments were prepared and tested to determine how these components were retained over an affinity column. To prepare the affinity column, three peptides were synthesized ([…], Seq. I.D. 13; KAFFKR, Seq. I.D. No. 33; and KVFFKR, Seq. I.D. No. 32), purified, and coupled to CNBr-activated Sepharose 4B (Pharmacia). First, the ability of calreticulin, purified from the culture supernatant of the lymphoblastoid cell line VDS-O, to selectively bind to the column and be eluted by a buffer solution containing 20 mM EDTA and 100 mM NaCl, was verified. […]

[5] = test system: bFGF-induced neovascularization; assay: Murine Matrigel assay of angiogenesis in vivo; design: species or system BALB/c nude mice; settings: Exp. 4; concentration not given; bFGF 150 ng/ml
Protocol: The murine Matrigel assay (Passaniti et al., Lab. Invest. 67:519-528, 1992) was employed to evaluate the effects of calreticulin and calreticulin fragments on angiogenesis in vivo. The Matrigel assay was performed as described by Angiolillo et al. (J. Exp. Med. 182:155-162, 1995). Matrigel, a crude extract of the Englebreth-Holm-Swarm tumor, was obtained from Collaborative Biomedical Products, Becton Dickinson Labware, Bedford, Mass. An aliquot (0.5 ml) of Matrigel alone or with desired additives was injected subcutaneously (s.c.) into the mid abdominal region of female BALB/c nude mice, 6-8 weeks old. Five mice were injected with each mixture. After 5-7 days, the animals were sacrificed, Matrigel plugs were removed, fixed in 10% neutral buffered formalin solution (Sigma), and embedded in paraffin. Tissues were sectioned (5μ thickness), and slides stained with Masson's trichrome. Quantitative analysis of angiogenesis in Matrigel plugs utilized a computerized semi-automated digital analyzer (Optomax, 40-10 System, Hollis, N.H.). The instrument was adjusted to evaluate a circular area measuring […] of Matrigel, and within this area, to measure the area occupied by cells. For each plug, 12-15 distinct fields were evaluated. The fields were randomly selected from each plug, and the operator was blind to the experimental design. The average area occupied by cells/1.26×10^5 […] Matrigel field was calculated. Results are expressed as the mean area occupied by cells/Matrigel field.
Matrigel plugs were fixed in 10% neutral buffered formalin solution (Sigma), embedded in paraffin, sectioned at 4 μm, and stained with Masson's trichrome by standard methods.

[6] = Table 3 exp. 1, 50 μg/ml, bFGF 25 ng/ml, 5 days
[7] = Table 3 exp. 1, 100 μg/ml, bFGF 25 ng/ml, 5 days
[8] = Table 3 exp. 2, 100 μg/ml, bFGF 25 ng/ml, 5 days
[9] = Table 3 exp. 2, 50 μg/ml, bFGF 25 ng/ml, 5 days
[10] = Table 3 exp. 1, 12.5 μg/ml, bFGF 25 ng/ml, 5 days
[11] = Table 3 exp. 1, 25 μg/ml, bFGF 25 ng/ml, 5 days
[12] = Table 1 exp. 3, estimated concentration 0.160 μg/ml, bFGF 25 ng/ml, 5 days
[13] = Table 1 exp. 1-2, 1 μg/ml, bFGF 25 ng/ml, 5 days

Molecule: light chain of human ferritin: recombinant purified light chain of human ferritin [reference compound]
- effect on the proliferation of endothelial cells ([1]; 1 pg to 1 μg/ml, not shown): minimal effect

Molecule: GPGTKKVHVIFNYKGKNVLINKDIRCKDDEFTHLYTLIVRPDNTYEVKIDNSQVESGSLE [60 amino acid peptide]
- effect on proliferation of B cell lines VDS-O and CA-46 [2]: neither peptide inhibited the proliferation
- effect on proliferation of B cell lines VDS-O and CA-46 ([2]; listed as 60 amino acid fragment): minimal effect
- Inhibition (%) [1, 6]: 40.1%
- Proliferation (mean cpm/culture) [1, 6]: 8,318 cpm/culture
- Inhibition (%) [1, 7]: 87.9%
- Proliferation (mean cpm/culture) [1, 7]: 1,688 cpm/culture
- Inhibition (%) [1, 8]: 59.5%
- Proliferation (mean cpm/culture) [1, 8]: 3,709 cpm/culture

Molecule: RANTES [reference compound]
- inhibitory effect of control peptide in endothelial cell assays [1]: no inhibitory effect
- Proliferation (mean cpm/culture) [1, 7]: 16,443 cpm/culture
- Proliferation (mean cpm/culture) ([1]; Table 3 exp. 2, 12.5 μg/ml, bFGF 25 ng/ml, 5 days): 13,644 cpm/culture
- Proliferation (mean cpm/culture) [1, 9]: 10,291 cpm/culture

Molecule: NYKGKNVLINKDIRCKDDEFTHLYTLIVRPDNTYEVKIDNSQVESGSLE [49 amino acid peptide]
- effect on proliferation of B cell lines VDS-O and CA-46 [2]: neither peptide inhibited the proliferation
- effect on proliferation of B cell lines VDS-O and CA-46 ([2]; listed as 49 amino acid fragment): minimal effect
- Inhibition (%) [1, 10]: 30.2%
- Proliferation (mean cpm/culture) [1, 10]: 9,743 cpm/culture
- Inhibition (%) [1, 11]: 56.7%
- Proliferation (mean cpm/culture) [1, 11]: 6,037 cpm/culture
- Inhibition (%) [1, 6]: 68.7%
- Proliferation (mean cpm/culture) [1, 6]: 4,368 cpm/culture
- Inhibition (%) [1, 9]: 45.4%
- Proliferation (mean cpm/culture) [1, 9]: 5,004 cpm/culture

B1: peptide KLGFFKR (Seq. I.D. No. 13) (peptide)
peptide: KLGFFKR
notes: Synthetic peptide, coupled to Sepharose in a mixture with the two other peptides; also called portion of an integrin
- binding result [3]: no binding

B2: peptide KAFFKR (Seq. I.D. No. 33) (peptide)
peptide: KAFFKR
notes: Synthetic peptide, coupled to Sepharose in a mixture with the two other peptides; also called portion of the estrogen receptor
- binding result [3]: no binding

B3: peptide KVFFKR (Seq. I.D. No. 32) (peptide)
peptide: KVFFKR
notes: Synthetic peptide, coupled to Sepharose in a mixture with the two other peptides; also called portion of the glucocorticoid receptor
- binding result [3]: no binding

B4: Gel-eluted calreticulin: natural calreticulin from purified VDS-O B cell line supernatant, 55 kDa band eluted from gel (protein)
chain: EPAVYFKEQFLDGDGWTSRWIESKHKSDFGKFVLSSGKFYGDEEKDKGLQTSQDARFYALSASFEPFSNKGQTLVVQFTVKHEQNIDCGGGYVKLFPNSLDQTDMHGDSEYNIMFGPDICGPGTKKVHVIFNYKGKNVLINKDIRCKDDEFTHLYTLIVRPDNTYEVKIDNSQVESGSLEDDWDFLPPKKIKDPDASKPEDWDERAKIDDPTDSKPEDWDKPEHIPDPDAKKPEDWDEEMDGEWEPPVIQNPEYKGEWKPRQIDNPDYKGTWIHPEIDNPEYSPDPSIYAYDNFGVLGLDLWQVKSGTIFDNFLITNDEAYAEEFGNETWGVTKAAEKQMKDKQDEEQRLKEEEEDKKRKEEEEAEDKEDDEDKDEDEEDEEDKEEDEEEDVPGQAKDEL
- binding to peptide affinity column [4]: retained by the column
- Inhibition (%) [1, 12]: 81%
- Proliferation (mean cpm/culture) [1, 12]: 11,226 cpm/culture

B5: Cleaved calreticulin: calreticulin cleaved (factor Xa) and purified from MBP-calreticulin (protein, UniProt P27797 18-417, looked up)
Calreticulin: B4 chain
- Inhibition (%) [5]: 58%
- Mean Surface Area Occupied by Cells [5]: 3,464 mm^2/1.26 × 10^5 mm^2
- Inhibition (%) [1, 13]: 72%
- Proliferation mean cpm/culture (±SD) [1, 13]: 7,088 (1846) cpm/culture
